In series [1] the test system is murine leukemia L1210. Put plainly: Cytostatic activity assay, L1210. It is filed as cell-based. Conditions: Mus musculus; L1210 cells, 48 h; read-out: IC50 (50% cytostatic inhibitory concentration, cell proliferation). As to the method: (§1) The 50% cytostatic inhibitory concentration (IC50) causing a 50% decrease in cell proliferation was determined against murine leukemia L1210, human lymphocyte CEM, human cervix carcinoma HeLa, and human dermal microvascular endothelial cells (HMEC-1).
(§2) All assays were performed in 96-well microtiter plates. To each well were added (5–7.5) × 10^4 tumor cells and a given amount of the test compound. The cells were allowed to proliferate for 48 h (murine leukemia L1210 cells) or 72 h (human lymphocytic CEM and human cervix carcinoma HeLa cells) at 37 °C in a humidified CO2-controlled atmosphere. At the end of the incubation period, the cells were counted in a Coulter counter. The IC50 (50% inhibitory concentration) was defined as the concentration of the compound that inhibited cell proliferation by 50%.

For series [2], the system named is human cervix carcinoma HeLa. Put plainly: Cytostatic activity assay, HeLa. The format is cell-based. Particulars: HeLa cells, 72 h, read-out: IC50 (50% cytostatic inhibitory concentration, cell proliferation). As for the experimental part:
as §1, §2

In series [3] the test system is L1210 cells. On the set-up: method as in doi:10.1135/cccc19822806. Particulars: cited from earlier work.

We go through 27 molecules from PMC5101293, “Acyclic nucleoside phosphonates containing the amide bond” (Monatshefte Fur Chemie, 2016).

Usually melting point stands for the temperature of the solid-liquid transition. As to `CCOP(=O)(CNC(=O)Cn1ccc(=O)[nH]c1=O)OCC`, the melting point is 215 to 217 °C.
The same measure, in the same setting: the figure for `CCOP(=O)(CCNC(=O)Cn1ccc(=O)[nH]c1=O)OCC` is 138 to 140 °C; for `CCOP(=O)(CCNC(=O)Cn1cc(F)c(=O)[nH]c1=O)OCC` it is 185 to 186 °C; for `CCOP(=O)(CNC(=O)Cn1cc(Br)c(=O)[nH]c1=O)OCC` it is 211 to 213 °C.
Take `CCOP(=O)(CCNC(=O)Cn1cc(Br)c(=O)[nH]c1=O)OCC`: the melting point lay within 211 to 213 °C.
Same read-out and setting: the figure for `CCOP(=O)(CCCNC(=O)Cn1cc(Br)c(=O)[nH]c1=O)OCC` is 164 to 166 °C.
Same read-out and setting: the figure for `CCOP(=O)(CNC(=O)Cn1cc(C)c(=O)[nH]c1=O)OCC` is 211.5 to 212.5 °C; for `CCOP(=O)(CCNC(=O)Cn1cc(C)c(=O)[nH]c1=O)OCC` it is 196 to 197 °C.
The same measure, in the same setting: with `CCOP(=O)(CCNC(=O)Cn1ccc(NC(=O)OCc2ccccc2)nc1=O)OCC` the figure was 127 to 128 °C.
In turn, `CCOP(=O)(CCCNC(=O)Cn1ccc(NC(=O)OCc2ccccc2)nc1=O)OCC` displayed a melting point of 150 to 151 °C.
`CCOP(=O)(CCNC(=O)Cn1c(=O)[nH]c(=O)c2ccccc21)OCC` displayed a melting point of 180 to 182 °C.
With `CCOP(=O)(CCCNC(=O)Cn1c(=O)[nH]c(=O)c2ccccc21)OCC`, the melting point fell in the range of 168 to 169 °C.
On the same count and under the same terms, the figure for `CCOP(=O)(CNC(=O)Cn1cnc2c(N(C(=O)OC(C)(C)C)C(=O)OC(C)(C)C)ncnc21)OCC` is 128 to 130 °C; for `CCOP(=O)(CCNC(=O)Cn1cnc2c(Cl)nc(N)nc21)OCC` it is 158 to 160 °C; for `CCOP(=O)(CCCNC(=O)Cn1cnc2c(Cl)nc(N)nc21)OCC` it is 180 to 181 °C.
The molecule `CCOP(=O)(CCCNC(=O)Cn1ccc(=O)[nH]c1=O)OCC` (hydrate or solvate) came in with a melting point of 120 to 122 °C.
For `CCOP(=O)(CNC(=O)Cn1cc(F)c(=O)[nH]c1=O)OCC` (hydrate or solvate), the melting point lay in the range of 205 to 208 °C.
Same read-out and setting: the figure for `CCOP(=O)(CCCNC(=O)Cn1cc(F)c(=O)[nH]c1=O)OCC` (hydrate or solvate) is 143 to 144 °C; for `CCOP(=O)(CCCNC(=O)Cn1cc(C)c(=O)[nH]c1=O)OCC` (hydrate or solvate) it is 183 to 184 °C.
Still for that read-out and setting: with `CCOP(=O)(CNC(=O)Cn1ccc(NC(=O)OCc2ccccc2)nc1=O)OCC` (hydrate or solvate) the figure was 180 to 182 °C; with `CCOP(=O)(CNC(=O)Cn1c(=O)[nH]c(=O)c2ccccc21)OCC` (hydrate or solvate), 203 to 205 °C.
On the same count and under the same terms, the figure for `CCOP(=O)(CNC(=O)Cn1cnc2c(Cl)nc(N)nc21)OCC` (hydrate or solvate) is 130 to 132 °C; for `CCOP(=O)(CNC(=O)Cn1cnc2c(=O)[nH]c(N)nc21)OCC` (hydrate or solvate) it is 165 °C (dec.).
Take `CCOP(=O)(CCNC(=O)Cn1cnc2c(=O)[nH]c(N)nc21)OCC` (hydrate or solvate): the melting point was 175 °C (dec.).
The same measure, in the same setting: the figure for `CCOP(=O)(CCCNC(=O)Cn1cnc2c(=O)[nH]c(N)nc21)OCC` (hydrate or solvate) is 155 °C (dec.).
As to `CCOP(=O)(COCCNC(=O)Cn1cc(F)c(=O)[nH]c1=O)OCC` [18d], the melting point lay within 69 to 70 °C. In addition, the IC50 in series [1] amounted to 89 ± 16 µM. In addition, in series [2], the IC50 came to 194 ± 19 µM.
As to `O=C(Cn1cc(F)c(=O)[nH]c1=O)NC(CO)(CO)CO` [18e], the “concentration at which found active in vitro against L1210 cells” value in series [3] is 15 µM.
